The record followed here is patent US20170202838A1, “IMMUNOMODULATOR” (TAIHO PHARMACEUTICAL CO., LTD., priority 2015, published 2017).

Assay type in all cases: cell-based
The subject of data set [1] is human peripheral blood mononuclear cells. Description: Induction of cytokine production in human peripheral blood mononuclear cells, Bio-Plex Pro cytokine assay (Example 7). To be noted: 2 days culture, no stimulant (FIG. 9). As to the method:
Human peripheral blood mononuclear cells were introduced into a human complete medium (i.e., RPMI-1640 supplemented with 10% heat-inactivated FBS, 100 U/ml penicillin, and 100 μg/ml streptomycin) to prepare a cell suspension (1×10^5 cells/ml). Compound (I), the EGFR tyrosine kinase inhibitor (i.e., AZD9291 or Erlotinib), or a cytokine-inducing positive control (i.e., Imiquimod) was added to the cell suspension. A control group to which the EGFR tyrosine kinase inhibitor and others were not added was also prepared (i.e., the non-treatment group). The culture solution was cultured in an incubator at 37° C. in the presence of 5% CO2 for 2 days. The culture supernatant was recovered, and various types of cytokines were inspected with the use of the Bio-Plex Pro human cytokine assay kit.

The test system is the same in data set [2]. The data set can be described thus: Induction of IL-2 production of PHA-M-stimulated human peripheral blood mononuclear cells (Example 2). The following applies: PHA-M 5 μg/ml, 3 days, ELISA (FIG. 3). As to the method:
Human peripheral blood mononuclear cells were introduced into a human complete medium (i.e., RPMI-1640 supplemented with 10% heat-inactivated FBS, 100 U/ml penicillin, and 100 μg/ml streptomycin) to prepare a cell suspension (1×10^6 cells/ml). Phytohemagglutinin M (PHA-M) was added thereto to the final concentration of 5 μg/ml, and Compound (I) or an EGFR tyrosine kinase inhibitor (AZD9291) was further added thereto to each final concentration. This culture solution was seeded in a 96-well plate at 200 μl/well and then cultured in an incubator at 37° C. in the presence of 5% CO2 for 3 days. The culture supernatant was recovered, and the concentration of IL-2 therein was measured via ELISA using the anti-hIL-2 antibody.
On the technique in general: In an ELISA, binding on a coated surface is turned into a signal by an enzyme label.

The subject of a further data set is mouse spleen cells. The data set can be described thus: Excitation of T cell growth, CFSE flow cytometry of CD4- and CD8-positive spleen cells (Example 4). The following applies: 0.1 μM, 3 days culture of stimulated spleen cells. As to the method: The mouse spleen was extracted, grinded with glass slides with frosted areas, and then subjected to hemolysis, so as to obtain spleen cells. The spleen cells were suspended in 5 ml of a staining buffer (0.5% BSA, 2 mM EDTA, PBS(-)), and the cells were stained with 5 μM CFSE (5-carboxyfluorescein succinimidyl ester). Thereafter, the stained cells were washed with an ice-cooled complete medium (RPMI-1640). The CFSE-stained spleen cells were introduced into a complete medium (i.e., RPMI-1640 supplemented with 10% heat-inactivated FBS, 100 U/ml penicillin, 100 μg/ml streptomycin, and 55 μM 2-mercaptoethanol) to prepare a cell suspension (1×10^6 cells/ml), the anti-CD3 antibody and the anti-CD28 antibody were added at 1 μg/ml and 1 μg/ml, respectively, and Compound (I) adjusted to various concentrations or the EGFR tyrosine kinase inhibitor (i.e., AZD09291, Erlotinib, Co1686 (Rociletinib), Ibrutinib, Sunitinib, or Dasatinib) was added at 0.1 μM. […] These culture solutions were seeded in a 96-well plate at 200 μl/well and then cultured in an incubator at 37° C. in the presence of 5% CO2 for 3 days. The cells were recovered and stained with the anti-CD4 antibody and the anti-CD8 antibody. The amounts of CFSE in CD4- and CD8-positive cells were analyzed via flow cytometry.
Once CFSE is incorporated into a cell, the amount thereof is kept constant in the cell. Since the amount of CFSE per cell decreases by half upon cell division, according to flow cytometric analysis, the intensity of CFSE staining is attenuated and is shifted toward left (i.e., lower level) in the chart, as cell division proceeds. […] In the case of the samples to which other types of EGFR tyrosine kinase inhibitors had been added, in contrast, no such activity for enhancing the cell growth was observed.
For orientation: Flow cytometry measures light scatter and fluorescence of single cells or particles in a stream.

As for `C=CC(=O)Nc1cc(Nc2nccc(-c3cn(C)c4ccccc34)n2)c(OC)cc1N(C)CCN(C)C` [AZD9291, reference compound], the “cytokine concentrations relative to the non-treatment group” value in data set [1] was “such induction was not observed”. The “concentration of IL-2 produced by human peripheral blood mononuclear cells in the culture supernatant” value in data set [2] is given as “substantially no activity for inducing IL-2 production”.
Consider `C#Cc1cccc(Nc2ncnc3cc(OCCOC)c(OCCOC)cc23)c1` [Erlotinib], for which, in data set [1], the “cytokine concentrations relative to the non-treatment group” value is given as “such induction was not observed”.
Regarding `Cc1nc(Nc2ncc(C(=O)Nc3c(C)cccc3Cl)s2)cc(N2CCN(CCO)CC2)n1` [Dasatinib, reference compound], the cell death result in the data set on mouse spleen cells is recorded as “cell death was induced”.
